System: 227483-062-R1-J1-PDC complex spheroids with HUVEC/MSC, viability
Assay: Anticancer human tumor 227483-062-R1-J1-PDC patient-derived pancreatic carcinoma cell line growth inhibition [CLK]
Conditions: for IC50: curve of first compound; for viability, T/C: stronger effect = lower value
Method in brief: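 Multi-cell-type spheroids combined patient-derived tumor cells with HUVEC endothelial cells and human mesenchymal stem cells. Paired agents were dosed in half-log steps down from about clinical Cmax, or from 10 microM where Cmax was unknown.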

[1] = second compound 0.0316 µM, first compound 0.0316 µM
[2] = second compound 0.0316 µM, first compound 0.1 µM
[3] = second compound 0.0316 µM, first compound 0.316 µM
[4] = second compound 0.0316 µM, first compound 1 µM
[5] = second compound 0.0316 µM, first compound 3.16 µM
[6] = second compound 0.0316 µM, first compound 10 µM
[7] = second compound 0.1 µM, first compound 0.0316 µM
[8] = second compound 0.1 µM, first compound 0.1 µM
[9] = second compound 0.1 µM, first compound 0.316 µM
[10] = second compound 0.1 µM, first compound 1 µM
[11] = second compound 0.1 µM, first compound 3.16 µM
[12] = second compound 0.1 µM, first compound 10 µM
[13] = second compound 0.316 µM, first compound 0.0316 µM
[14] = second compound 0.316 µM, first compound 0.1 µM
[15] = second compound 0.316 µM, first compound 0.316 µM
[16] = second compound 0.316 µM, first compound 1 µM
[17] = second compound 0.316 µM, first compound 3.16 µM
[18] = second compound 0.316 µM, first compound 10 µM
[19] = second compound 1 µM, first compound 0.0316 µM
[20] = second compound 1 µM, first compound 0.1 µM
[21] = second compound 1 µM, first compound 0.316 µM
[22] = second compound 1 µM, first compound 1 µM
[23] = second compound 1 µM, first compound 3.16 µM
[24] = second compound 1 µM, first compound 10 µM
[25] = second compound 3.16 µM, first compound 0.0316 µM
[26] = second compound 3.16 µM, first compound 0.1 µM
[27] = second compound 3.16 µM, first compound 0.316 µM
[28] = second compound 3.16 µM, first compound 1 µM
[29] = second compound 3.16 µM, first compound 3.16 µM
[30] = second compound 3.16 µM, first compound 10 µM
[31] = second compound 10 µM, first compound 0.0316 µM
[32] = second compound 10 µM, first compound 0.1 µM
[33] = second compound 10 µM, first compound 0.316 µM
[34] = second compound 10 µM, first compound 1 µM
[35] = second compound 10 µM, first compound 3.16 µM
[36] = second compound 10 µM, first compound 10 µM
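Also: spheroids exposed to compounds for seven days before readout.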
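For viability, T/C in this document: percent of DMSO vehicle control luminescence as 100% viability.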

Question: Which IC50 (second compound 0.0316 µM) does the source give for COc1ccc([C@@H](O)c2cc(-c3ncnc4cc(N5CCOCC5)ccc34)c(F)cc2Cl)nn1 + CN1CCN(c2cc(C(=O)Nc3cc4cc(-c5cnn(C)c5)ccc4cn3)ccn2)CC1 here?
Answer: > 10000 nM

Question: And the IC50 (second compound 0.1 µM)?
Answer: > 10000 nM

Question: What about the IC50 (second compound 0.316 µM) of the same molecule?
Answer: < 31.6 nM

Question: And the IC50 (second compound 1 µM)?
Answer: < 31.6 nM

Question: And the IC50 (second compound 3.16 µM)?
Answer: < 31.6 nM

Question: What about the IC50 (second compound 10 µM) of the same molecule?
Answer: < 31.6 nM

Question: What about the viability, T/C [1] of the same molecule?
Answer: 95.2%

Question: What about the viability, T/C [2] of the same molecule?
Answer: 107%

Question: And the viability, T/C [3]?
Answer: 115%

Question: What about the viability, T/C [4] of the same molecule?
Answer: 99%

Question: What about the viability, T/C [5] of the same molecule?
Answer: 75.7%

Question: What about the viability, T/C [6] of the same molecule?
Answer: 66.6%

Question: What about the viability, T/C [7] of the same molecule?
Answer: 60.8%

Question: And the viability, T/C [8]?
Answer: 69.8%

Question: What about the viability, T/C [9] of the same molecule?
Answer: 54.1%

Question: What about the viability, T/C [10] of the same molecule?
Answer: 73.5%

Question: And the viability, T/C [11]?
Answer: 66.2%

Question: And the viability, T/C [12]?
Answer: 48.8%

Question: What about the viability, T/C [13] of the same molecule?
Answer: 5.56%

Question: What about the viability, T/C [14] of the same molecule?
Answer: 4.19%

Question: What about the viability, T/C [15] of the same molecule?
Answer: 4.12%

Question: And the viability, T/C [16]?
Answer: 4.66%

Question: What about the viability, T/C [17] of the same molecule?
Answer: 5.44%

Question: What about the viability, T/C [18] of the same molecule?
Answer: 3.88%

Question: And the viability, T/C [19]?
Answer: 1.55%

Question: What about the viability, T/C [20] of the same molecule?
Answer: 3.72%

Question: And the viability, T/C [21]?
Answer: 3.44%

Question: And the viability, T/C [22]?
Answer: 2.14%

Question: What about the viability, T/C [23] of the same molecule?
Answer: 2.19%

Question: What about the viability, T/C [24] of the same molecule?
Answer: 1.68%

Question: And the viability, T/C [25]?
Answer: 5.54%

Question: What about the viability, T/C [26] of the same molecule?
Answer: 3.34%

Question: And the viability, T/C [27]?
Answer: 3.99%

Question: What about the viability, T/C [28] of the same molecule?
Answer: 3.31%

Question: What about the viability, T/C [29] of the same molecule?
Answer: 3.4%

Question: What about the viability, T/C [30] of the same molecule?
Answer: 2.14%

Question: And the viability, T/C [31]?
Answer: 2.64%

Question: And the viability, T/C [32]?
Answer: 1.93%

Question: And the viability, T/C [33]?
Answer: 2.01%

Question: And the viability, T/C [34]?
Answer: 1.95%

Question: What about the viability, T/C [35] of the same molecule?
Answer: 1.9%

Question: And the viability, T/C [36]?
Answer: 1.68%

Question: Which results are given for COc1cccc2c1C(=O)c1c(O)c3c(c(O)c1C2=O)CC(O)(C(=O)CO)CC3OC1CC(N)C(O)C(C)O1 (centres undefined) + CN1CCN(c2cc(C(=O)Nc3cc4cc(-c5cnn(C)c5)ccc4cn3)ccn2)CC1?
Answer: IC50 (second compound 0.0316 µM): 180 nM; IC50 (second compound 0.1 µM): 73.4 nM; IC50 (second compound 0.316 µM): < 31.6 nM; IC50 (second compound 1 µM): < 31.6 nM; IC50 (second compound 3.16 µM): < 31.6 nM; IC50 (second compound 10 µM): < 31.6 nM; viability, T/C [1]: 84.1%; viability, T/C [2]: 68%; viability, T/C [3]: 32.8%; viability, T/C [4]: 12.8%; viability, T/C [5]: 2.47%; viability, T/C [6]: 10.4%; viability, T/C [7]: 64.5%; viability, T/C [8]: 44.6%; viability, T/C [9]: 17.3%; viability, T/C [10]: 8.44%; viability, T/C [11]: 2.6%; viability, T/C [12]: 10.8%; viability, T/C [13]: 5.51%; viability, T/C [14]: 5.14%; viability, T/C [15]: 1.16%; viability, T/C [16]: 1.51%; viability, T/C [17]: 3.05%; viability, T/C [18]: 9.1%; viability, T/C [19]: 1.69%; viability, T/C [20]: 1.91%; viability, T/C [21]: 2.92%; viability, T/C [22]: 4.33%; viability, T/C [23]: 3.24%; viability, T/C [24]: 11%; viability, T/C [25]: 5.16%; viability, T/C [26]: 2.78%; viability, T/C [27]: 2.53%; viability, T/C [28]: 3.22%; viability, T/C [29]: 3.62%; viability, T/C [30]: 7.06%; viability, T/C [31]: 3.68%; viability, T/C [32]: 1.75%; viability, T/C [33]: 1.37%; viability, T/C [34]: 1.43%; viability, T/C [35]: 1.53%; viability, T/C [36]: 1.26%

— PubChem BioAssay AID2060623 (Molecular Pharmacology Branch, DTP, NCI, 2025)
